Compound	melting point
CCOC(=O)c1cc2cc(-c3ccc(C(C)O)cc3)ccc2o1 (stereo not given)	108 to 109 °C
CCOCn1c(Cl)c(Cl)c(C#N)c1-c1ccc(Cl)c(Cl)c1	128 to 130 °C
COc1cc(C(=O)c2c(C)c(C(=O)O)c3ccccn23)ccc1[N+](=O)[O-]	215 °C
O=C(NCCSC(c1ccccc1)(c1ccccc1)c1ccccc1)c1cc2cccc(OCc3ccccc3)c2[nH]1	156 to 157 °C
Cn1c(COc2ccc(C=O)cc2)nc2ccc(Sc3cc(C(C)(C)C)c(O)c(C(C)(C)C)c3)cc21	219 to 221 °C
COC(=O)c1cc(Cl)cc2c1OCCN2	60 to 61 °C
NNC1=NS(=O)(=O)c2cnccc2N1	290 to 292 °C
CC(=O)N1CCc2ccc(Cl)c(S)c2C1	92 to 112 °C
c1ccc(CCc2[nH]ncc2-c2ccncc2)cc1	125 to 131 °C
COC(=O)CCC(Oc1cccc2c1cc(C)n2Cc1ccccc1)C(=O)OC (stereo not given)	139 to 141 °C
Nc1nc(=O)n(CC2CC2)cc1F	224 to 226 °C
O=C1C=C(C(F)(F)F)N(Br)CN1c1ccc(C(F)(F)F)cn1	142 to 143 °C
Oc1ccc2ccc(OCc3nc4ccccc4s3)cc2c1	205 to 207 °C
FC(F)(F)c1ccc(C#Cc2ccc(C#Cc3cc4ccccc4s3)s2)cc1	149 to 150 °C
COc1ccc2c(c1)C(CCNC(=O)c1ccc(Br)cc1)CC2 (stereo not given)	142 to 143 °C
Clc1cc(Cl)c2c(c1)C[C@@H]1CCc3ccccc3[C@@H]1O2 (relative stereo)	141 to 144 °C
CCOC(=O)CN[C@H]1CSc2ccccc2N(CC(=O)O)C1=O	223 to 226 °C
CC1(C)C(=O)N(C(=O)NCC2(O)CCN(CC3(C(=O)O)CCC3)CC2)c2cc(F)ccc21	159 °C
O=C1c2ccccc2C(=O)N1CCc1ncc(C(F)(F)F)cc1Cl	147 to 148 °C
CC(C)(C)OC(=O)N[C@@H](CCC(=O)c1ccccc1)C(=O)OC(C)(C)C	85 °C
N#CC(C#N)=Cc1ccc(O)c(O)c1	225 °C
Oc1cn(-c2c(Cl)cc(C(F)(F)F)cc2Cl)nc1C(F)(F)F	186 to 188 °C
O=C1N(Cc2ccc(C(F)(F)F)o2)c2cccc(-c3ccoc3)c2C12COc1cc3c(cc12)CCO3 (stereo not given)	167 to 169 °C
O=C(C=Cc1ccc(-c2ccc(O)cc2)cc1)NO	> 300 °C
COc1cc(OC)c(-c2nc(N)sc2C)cc1Cl	188 °C

Compound	melting point
CCCc1nc(Nc2cccc(C(C)C)c2)nc(NC2CCN(S(C)(=O)=O)CC2)n1	80.4 to 81.8 °C
O=C1Cc2cccc(Nc3ccccc3)c2N1	166 to 168 °C
Cn1c(=O)[nH]c2nc3ccc(OCCCC(=O)N4CCCCC4)cc3cc21	215 to 217 °C
CSc1ccc(C(=O)c2c(C)c(C(=O)O)c3n2CCC3C(=O)O)n1C (stereo not given)	212 to 213 °C
N#Cc1ccc(C(Cc2ccc(C#N)cn2)Cn2cncn2)cc1 (stereo not given)	98 °C
COC(=O)C(=O)CC(=O)c1ccc(Cl)cc1	108 to 110 °C
CCOC(=O)CN1CCN(S(=O)(=O)c2ccc(N3CCC(NC[C@H](O)c4ccc(O)c(NS(C)(=O)=O)c4)CC3)cc2)CC1	91 to 92 °C
COc1ccc(C2=NN(C3CCN(C(=O)CCSCCNC(=O)OC(C)(C)C)CC3)C(=O)[C@@H]3CC=CC[C@H]23)cc1OC	132 to 134 °C
O=C(Nc1nc(-c2ccco2)c(C(=O)C2CCOCC2)s1)c1ccco1	196 to 198 °C
ClCCOc1ccc2ccccc2c1	94 °C
CCC(=NO)c1ccc(OCCOC)cc1	74 to 80 °C
NC(=O)c1ccc(N2CCN(Cc3cn4cc(Cl)ccc4n3)CC2)c(F)c1	253 to 255 °C
C=CCc1cc2c(c(CC=C)c1O)NC(=O)CC2	86 to 88 °C
CCCC(=O)c1cnc2ccsc2c1Nc1ccc(F)cc1C	153 to 155 °C
CCOC(=O)C(O[Si](C)(C)C)C(O[Si](C)(C)C)c1cc2c(cc1[N+](=O)[O-])OCO2 (stereo not given)	73.6 to 79.1 °C
O=c1[nH]c2ccc(S(=O)(=O)N3CCN(c4ccccn4)CC3)c3c2c2c(cccc12)C3	263 to 270 °C
C#CC(C)(O)CCC=C(C)CCC=C(C)CCC=C(C)CCC=C(C)CCC=C(C)CCC=C(C)CCC=C(C)CCC=C(C)CCC=C(C)CCC=C(C)C (stereo not given)	35.5 to 36.5 °C
Cc1ccc(N(C)C(=O)CN(C(=O)CNC(=O)Nc2cccc(C)c2)c2ccccc2)cc1	162 °C
COC(=O)c1cc2cc(CBr)ccc2s1	108 to 110 °C
COC(=O)c1cccc(-c2cccc(Oc3cccc(Cl)c3Cl)n2)c1	105 to 106 °C
Cc1ccc(-c2nc(SCc3ccccn3)n[nH]2)c(C)c1	112 to 114 °C
CN(Cc1ncc(C(F)(F)F)cc1Cl)C(=O)c1c(Cl)cccc1Cl	83 to 84 °C
OC1(c2cccn2Cc2ccccc2F)CCN(CCc2ccc(Cl)cc2)CC1	108 to 109 °C
Cn1cc2c(=O)c(C(=O)c3ccccc3)cn(C)c2n1	272 to 274 °C
CCCCCCC/C=C/C(=O)NCCC(C)C	28 to 31 °C

Source: a melting point compilation (Tetko et al.; mined from patent text by program, amines drawn as free bases though some values may be those of a salt)
